Measured values as given in ChEMBL document CHEMBL1145304 (Bioorg Med Chem Lett, 2006).
pIC50: −log10 of the molar value.

Columns and labels:
[1] = molecular target: Sodium-dependent serotonin transporter (Homo sapiens, UniProt P31645); type: cell-based, HEK293
[2] = molecular target: Sodium-dependent noradrenaline transporter (Homo sapiens, UniProt P23975)
Description: Inhibition of [3H]NA reuptake at NA transporter in HEK293 cells

[3] = molecular target: Sodium-dependent dopamine transporter (Homo sapiens, UniProt Q01959)
Sequence of Sodium-dependent dopamine transporter (Q01959 whole entry): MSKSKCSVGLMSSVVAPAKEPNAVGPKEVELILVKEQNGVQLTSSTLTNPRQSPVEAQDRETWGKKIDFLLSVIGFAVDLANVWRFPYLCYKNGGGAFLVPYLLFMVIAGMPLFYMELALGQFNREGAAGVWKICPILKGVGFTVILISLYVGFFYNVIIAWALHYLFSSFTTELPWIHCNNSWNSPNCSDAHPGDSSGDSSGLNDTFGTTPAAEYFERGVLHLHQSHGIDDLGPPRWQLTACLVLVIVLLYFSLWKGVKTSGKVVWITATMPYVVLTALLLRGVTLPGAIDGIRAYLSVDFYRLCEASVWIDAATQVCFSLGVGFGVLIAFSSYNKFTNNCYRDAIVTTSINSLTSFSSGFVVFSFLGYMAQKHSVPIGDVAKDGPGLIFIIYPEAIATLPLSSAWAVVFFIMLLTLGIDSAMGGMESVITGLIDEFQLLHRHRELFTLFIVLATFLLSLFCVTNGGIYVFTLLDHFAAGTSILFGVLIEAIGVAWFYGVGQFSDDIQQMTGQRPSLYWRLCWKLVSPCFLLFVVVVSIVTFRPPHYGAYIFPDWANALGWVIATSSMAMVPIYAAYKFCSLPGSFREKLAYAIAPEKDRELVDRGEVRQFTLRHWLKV
Description: Inhibition of [3H]DA reuptake at DA transporter in HEK293 cells

Sequence of Sodium-dependent serotonin transporter (P31645 whole entry): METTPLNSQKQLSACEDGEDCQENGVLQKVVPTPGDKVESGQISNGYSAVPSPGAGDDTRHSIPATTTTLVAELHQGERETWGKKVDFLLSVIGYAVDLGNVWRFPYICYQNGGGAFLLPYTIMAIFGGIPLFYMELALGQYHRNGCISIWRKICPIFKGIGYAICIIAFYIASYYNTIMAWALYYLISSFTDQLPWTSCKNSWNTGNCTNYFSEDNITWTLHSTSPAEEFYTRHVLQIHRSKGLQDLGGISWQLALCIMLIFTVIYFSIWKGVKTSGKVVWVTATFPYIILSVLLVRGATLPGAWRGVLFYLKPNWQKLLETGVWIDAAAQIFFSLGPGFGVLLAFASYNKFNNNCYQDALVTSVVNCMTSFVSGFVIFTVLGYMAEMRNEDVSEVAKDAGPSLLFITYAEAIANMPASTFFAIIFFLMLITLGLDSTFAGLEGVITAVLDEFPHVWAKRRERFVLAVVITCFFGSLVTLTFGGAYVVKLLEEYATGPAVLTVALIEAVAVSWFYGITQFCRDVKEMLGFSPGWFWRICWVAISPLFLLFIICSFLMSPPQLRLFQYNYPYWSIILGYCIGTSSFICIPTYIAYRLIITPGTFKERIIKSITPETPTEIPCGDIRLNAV
Sequence of Sodium-dependent noradrenaline transporter (P23975 whole entry): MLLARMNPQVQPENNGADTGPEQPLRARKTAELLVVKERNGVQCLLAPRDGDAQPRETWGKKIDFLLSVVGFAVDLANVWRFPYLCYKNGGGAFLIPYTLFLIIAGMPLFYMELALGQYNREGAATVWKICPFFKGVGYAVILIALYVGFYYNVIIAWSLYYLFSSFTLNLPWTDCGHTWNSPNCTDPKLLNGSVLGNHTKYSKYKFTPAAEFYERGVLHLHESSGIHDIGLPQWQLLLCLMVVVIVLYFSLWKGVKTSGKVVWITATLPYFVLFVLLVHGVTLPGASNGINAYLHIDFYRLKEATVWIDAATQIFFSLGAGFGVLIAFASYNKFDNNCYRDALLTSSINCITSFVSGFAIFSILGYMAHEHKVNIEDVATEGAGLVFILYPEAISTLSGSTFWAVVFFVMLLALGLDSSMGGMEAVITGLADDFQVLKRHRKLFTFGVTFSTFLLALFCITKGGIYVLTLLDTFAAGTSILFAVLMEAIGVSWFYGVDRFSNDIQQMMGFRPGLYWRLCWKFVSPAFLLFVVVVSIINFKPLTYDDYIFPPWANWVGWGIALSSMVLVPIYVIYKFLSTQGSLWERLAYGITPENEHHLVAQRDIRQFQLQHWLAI

Compound | pIC50 [1] | pIC50 [2] | pIC50 [3]
c1ccc(CCC(c2ccccc2)N2CCNCC2)cc1 (centres undefined) | 7.64 | < 6.40 | 
CCOc1ccccc1CC(c1nccs1)N1CCNCC1 (centres undefined) | 7.41 | 6.47 | 
Clc1ccccc1CC(c1ccccc1)N1CCCNCC1 (centres undefined) | 7.38 | 7.12 | 
c1ccc(C(Cc2cccc3ccccc23)N2CCNCC2)cc1 (centres undefined) | 7.92 | < 6.40 | 
CCOc1ccccc1CC(c1cccnc1)N1CCNCC1 (centres undefined) | 7.34 | 7.82 | < 5.40
CCOc1ccccc1CC(c1cncs1)N1CCNCC1 (centres undefined) | 7.40 | 7.68 | 
CCOc1ccccc1CC(c1ccccc1)N1CCCNCC1 (centres undefined) | 6.52 | 8.06 | 
c1ccc(C(Cc2ccncc2)N2CCNCC2)cc1 (centres undefined) | 7.42 | < 6.40 | 
c1ccc(C(Cc2ccccn2)N2CCNCC2)cc1 (centres undefined) | 6.64 | < 6.40 | 
Clc1ccccc1CC(c1cncs1)N1CCNCC1 (centres undefined) | 7.92 | 6.92 | 
Clc1ccccc1CC(c1cccnc1)N1CCNCC1 (centres undefined) | 7.85 | 7.12 | 5.04
c1ccc(CCC(Cc2ccccc2)N2CCNCC2)cc1 (centres undefined) | 7.64 | 7.32 | 6.40
c1ccc(C(Cc2ccc3ccccc3c2)N2CCNCC2)cc1 (centres undefined) | 7.77 | < 6.40 | 
